Experimental data: paper PMC10196118, “Evidence for broad cross-reactivity of the SARS-CoV-2 NSP12-directed CD4^+ T-cell response with pre-primed responses directed against common cold coronaviruses” (Frontiers in Immunology, 2023)

Assays:
HLA DRB1*03:01 = HLA DRB1*03:01 (Homo sapiens, UniProt P01903+P01911, A100K/A102G/A103R/A169T/F55Y/I96L/K41T/L162R/M171V/P40S/Q125H/Q178H/Q39Y/R42S/S66N/T106N/T262R/W38E/Y61H); test: biochemical; format: binding; conditions: binder threshold 1,000 nM, read-out: In vitro (IC50 nM) DRB1*03:01
Chain of HLA DRB1*03:01 (P01903 26-254, other chains not shown): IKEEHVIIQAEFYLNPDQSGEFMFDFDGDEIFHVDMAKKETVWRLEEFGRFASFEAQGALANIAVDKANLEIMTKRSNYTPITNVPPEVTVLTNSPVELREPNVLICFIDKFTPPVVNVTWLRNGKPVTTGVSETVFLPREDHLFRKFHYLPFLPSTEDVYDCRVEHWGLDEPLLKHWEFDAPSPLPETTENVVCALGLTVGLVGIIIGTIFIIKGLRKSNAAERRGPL
HLA DRB1*15:01 = HLA DRB1*15:01 (Homo sapiens, UniProt P01903+P01911); test: biochemical; format: binding; conditions: binder threshold 1,000 nM, read-out: In vitro (IC50 nM) DRB1*15:01
HLA DRB1*08:02 = HLA DRB1*08:02 (Homo sapiens, UniProt P01903+P01911, A100R/A103L/A169T/F76Y/H45Y/I96F/K41T/L162R/M171V/P40S/Q125H/Q178H/Q39Y/Q99D/R218S/R42G/S66Y/V115G/W38E); test: biochemical; format: binding; conditions: binder threshold 1,000 nM, read-out: In vitro (IC50 nM) DRB1*08:02
HLA DRB1*07:01 = HLA DRB1*07:01 (Homo sapiens, UniProt P01903+P01911, A100R/A102G/A103Q/D57E/D86V/E43K/F76Y/K127E/L162R/M171V/P40G/Q125H/Q99D/R33Q/R42Y/R54Q/S133A/S66F/T210M/V115G/Y107V/Y59L/Y89S); test: biochemical; format: binding; conditions: binder threshold 1,000 nM, read-out: In vitro (IC50 nM) DRB1*07:01
HLA DRB1*04:01 = HLA DRB1*04:01 (Homo sapiens, UniProt P01903+P01911, A100K/A169T/F76Y/I96L/K127E/L162R/M171V/N62H/P40V/Q125Y/R42H/S133A/S149N/S66Y/V115G/V209L/W38E); test: biochemical; format: binding; conditions: binder threshold 1,000 nM, read-out: In vitro (IC50 nM) DRB1*04:01
HLA DRB1*12:01 = HLA DRB1*12:01 (Homo sapiens, UniProt P01903+P01911, A100R/A169T/D57E/D86V/F55L/H45Y/K41T/L162R/M171V/P40S/Q125H/Q178H/Q39Y/Q99D/R42G/S66L/T262R/V114A/V67L/W38E/Y59H/Y61H/Y89S); test: biochemical; format: binding; conditions: binder threshold 1,000 nM, read-out: In vitro (IC50 nM) DRB1*12:01
HLA DRB1*04:05 = HLA DRB1*04:05 (Homo sapiens, UniProt P01903+P01911, A100R/A169T/D86S/F76Y/I96L/K127E/L162R/M171V/N62H/P40V/Q125Y/R42H/S133A/S149N/S66Y/V115G/V209L/W38E); test: biochemical; format: binding; conditions: binder threshold 1,000 nM, read-out: In vitro (IC50 nM) DRB1*04:05
HLA DRB1*13:02 = HLA DRB1*13:02 (Homo sapiens, UniProt P01903+P01911, A100E/A169T/K41T/L162R/M171V/P40S/Q125H/Q178H/Q39Y/Q99D/R42S/S66N/T262R/V115G/W38E/Y61H); test: biochemical; format: binding; conditions: binder threshold 1,000 nM, read-out: In vitro (IC50 nM) DRB1*13:02
Chain of HLA DRB1*13:02 (P01903 26-254 limits assumed, other chains not shown): as the sequence (P01903 26-254, other chains not shown) above
HLA DRB1*11:01 = HLA DRB1*11:01 (Homo sapiens, UniProt P01903+P01911, A100R/A169T/A87E/I96F/K41T/L162R/M171V/P40S/Q125H/Q178H/Q39Y/Q99D/R42S/S66Y/T262R/V115G/W38E); test: biochemical; format: binding; conditions: binder threshold 1,000 nM, read-out: In vitro (IC50 nM) DRB1*11:01
Chain of HLA DRB1*11:01 (P01903 26-254, other chains not shown): as above
HLA DRB1*09:01 = HLA DRB1*09:01 (Homo sapiens, UniProt P01903+P01911, A100R/A103E/D57H/D86V/F55Y/F60I/F76Y/I96F/K127E/L162R/M171V/P40D/Q125H/Q99R/R33Q/R42F/S133A/S66N/T210M/V115G/W38K/Y107V/Y59G/Y89S); test: biochemical; format: binding; conditions: binder threshold 1,000 nM, read-out: In vitro (IC50 nM) DRB1*09:01
HLA DRB1*01:01 = HLA DRB1*01:01 (Homo sapiens, UniProt P01903+P01911, A100R/D57E/F55L/F60I/F76Y/I96L/L162R/M171V/P40L/Q125E/R42F/V115G/Y59C); test: biochemical; format: binding; conditions: binder threshold 1,000 nM, read-out: In vitro (IC50 nM) DRB1*01:01
11 DRB1-HLA molecules = test: In vitro HLA class II binding, number of DRB1 alleles bound; set-up: species or system human; conditions: number of the 11 DRB1-HLA molecules tested bound with an affinity of 1,000 nM or better (in vitro)
CD4+ T cells = test: Peptide-specific CD4+ T-cell response: IFN-γ ELISpot validated by intracellular cytokine staining after in vitro expansion; format: cell-based, human; conditions: COVID-19 patients (acute or resolved, n = 27); peptide 10 µg/ml; share of individuals with a positive response
[1] = test system: pre-cultured PBMCs (NSP12-specific T cells); test: IFN-γ ELISpot with single 15-mer peptides after 11–13 days in vitro peptide-pool T-cell expansion; format: cell-based, human; conditions: single NSP12 15-mer peptides

Row | SMILES | IC50 (HLA DRB1*03:01) [nM] | IC50 (HLA DRB1*15:01) [nM] | IC50 (HLA DRB1*08:02) [nM] | IC50 (HLA DRB1*07:01) [nM] | IC50 (HLA DRB1*04:01) [nM] | IC50 (HLA DRB1*12:01) [nM] | IC50 (HLA DRB1*04:05) [nM] | IC50 (HLA DRB1*13:02) [nM] | IC50 (HLA DRB1*11:01) [nM] | IC50 (HLA DRB1*09:01) [nM] | IC50 (HLA DRB1*01:01) [nM] | other results
1 | CC[C@H](C)[C@H](NC(=O)[C@@H]1CCCN1C(=O)[C@H](CCSC)NC(=O)[C@@H](N)CC(C)C)C(=O)N[C@@H](CC(C)C)C(=O)N[C@H](C(=O)N[C@@H](CC(C)C)C(=O)N[C@H](C(=O)N[C@@H](CCCNC(=N)N)C(=O)N[C@@H](C)C(=O)N[C@@H](CC(C)C)C(=O)N[C@H](C(=O)N[C@@H](C)C(=O)N[C@@H](CCC(=O)O)C(=O)N[C@@H](CO)C(=O)O)[C@@H](C)O)[C@@H](C)O)[C@@H](C)O [NSP12_49] | 12100 | 37 | 283 | 15 | 20 | 131 | 367 | 409 | 37 | 123 | 136 | 
2 | CC[C@H](C)[C@H](NC(=O)[C@@H](NC(=O)[C@@H]1CCCN1C(=O)[C@@H](NC(=O)[C@@H](NC(=O)[C@H](CC(N)=O)NC(=O)[C@H](CCCNC(=N)N)NC(=O)[C@H](CCCCN)NC(=O)[C@@H](NC(=O)[C@H](Cc1ccc(O)cc1)NC(=O)[C@H](C)NC(=O)[C@H](Cc1ccccc1)NC(=O)[C@H](CC(C)C)NC(=O)[C@H](C)N)[C@@H](C)O)C(C)C)[C@@H](C)CC)[C@@H](C)O)C(=O)N[C@H](C(=O)O)[C@@H](C)O [NSP12_106] | 709 | 770 | 190 | 1.6 | 3660 | 756 | 13000 | 32 | 6.6 | 52 | 7360 | 
3 | CC(C)C[C@H](NC(=O)[C@H](CCCNC(=N)N)NC(=O)[C@H](Cc1ccc(O)cc1)NC(=O)[C@H](Cc1ccccc1)NC(=O)[C@H](CCCNC(=N)N)NC(=O)[C@H](Cc1c[nH]cn1)NC(=O)[C@H](CO)NC(=O)[C@H](CC(C)C)NC(=O)[C@H](CO)NC(=O)[C@H](CS)NC(=O)[C@H](CS)NC(=O)[C@@H](NC(=O)[C@@H](NC(=O)[C@H](Cc1c[nH]cn1)NC(=O)[C@@H](N)CCCCN)[C@@H](C)O)[C@@H](C)O)C(=O)O [NSP12_129] | 916 | 447 | 1010 | 56 | 613 | 59 | 644 | 1170 | 235 | 286 | 279 | 
4 | CC(C)C[C@H](NC(=O)[C@H](CCCNC(=N)N)NC(=O)[C@H](Cc1ccc(O)cc1)NC(=O)[C@H](Cc1ccccc1)NC(=O)[C@H](CCCNC(=N)N)NC(=O)[C@H](Cc1c[nH]cn1)NC(=O)[C@H](CO)NC(=O)[C@H](CC(C)C)NC(=O)[C@H](CO)NC(=O)[C@@H](N)CS)C(=O)N[C@@H](C)C(=O)N[C@@H](CC(N)=O)C(=O)N[C@@H](CCC(=O)O)C(=O)N[C@@H](CS)C(=O)N[C@@H](C)C(=O)O [NSP12_130] |  |  |  |  |  |  |  |  |  |  |  | Alleles bound (11 DRB1-HLA molecules): 8; RF (response frequency), CD4+ T-cell response (CD4+ T cells): 26%; peptide-specific response, donor HH-N12-18, post COVID-19 ([1]; donor HH-N12-18, sample post COVID-19): 0; peptide-specific response, donor HH-N12-18, pre COVID-19 ([1]; donor HH-N12-18, sample pre COVID-19): 0; peptide-specific response, donor HH-N12-34, post COVID-19 ([1]; donor HH-N12-34, sample post COVID-19): 0.031; peptide-specific response, donor HH-N12-34, pre COVID-19 ([1]; donor HH-N12-34, sample pre COVID-19): 0.09; peptide-specific response, donor HH-N12-35, post COVID-19 ([1]; donor HH-N12-35, sample post COVID-19): 0; peptide-specific response, donor HH-N12-35, pre COVID-19 ([1]; donor HH-N12-35, sample pre COVID-19): 0; peptide-specific response, donor HH-N12-36, post COVID-19 ([1]; donor HH-N12-36, sample post COVID-19): 0.06; peptide-specific response, donor HH-N12-36, pre COVID-19 ([1]; donor HH-N12-36, sample pre COVID-19): 0; peptide-specific response, donor HH-N12-37, post COVID-19 ([1]; donor HH-N12-37, sample post COVID-19): 0.032; peptide-specific response, donor HH-N12-37, pre COVID-19 ([1]; donor HH-N12-37, sample pre COVID-19): 0
5 | CC(C)C[C@H](NC(=O)[C@H](CCCNC(=N)N)NC(=O)[C@H](Cc1ccc(O)cc1)NC(=O)[C@H](Cc1ccccc1)NC(=O)[C@@H](N)CCCNC(=N)N)C(=O)N[C@@H](C)C(=O)N[C@@H](CC(N)=O)C(=O)N[C@@H](CCC(=O)O)C(=O)N[C@@H](CS)C(=O)N[C@@H](C)C(=O)N[C@@H](CCC(N)=O)C(=O)N[C@H](C(=O)N[C@@H](CC(C)C)C(=O)N[C@@H](CO)C(=O)N[C@@H](CCC(=O)O)C(=O)O)C(C)C [NSP12_131] | 8410 | 611 | 2350 | 279 | 27 | 6320 | 270 | 23800 | 367 | 48 | 53 | 
6 | CSCC[C@H](NC(=O)[C@@H](NC(=O)[C@@H]1CCCN1C(=O)[C@H](CC(C)C)NC(=O)[C@H](CC(N)=O)NC(=O)[C@H](Cc1ccc(O)cc1)NC(=O)[C@H](CCCNC(=N)N)NC(=O)[C@H](Cc1ccc(O)cc1)NC(=O)[C@H](Cc1ccc(O)cc1)NC(=O)[C@H](CC(=O)O)NC(=O)[C@H](Cc1ccc(O)cc1)NC(=O)[C@H](CC(=O)O)NC(=O)[C@@H](N)CO)[C@@H](C)O)C(=O)N[C@@H](CS)C(=O)N[C@@H](CC(=O)O)C(=O)O [Peptide 91] |  | 1480 | 3510 | 549 | 830 | 29600 | 3280 | 13600 | 18200 | 1430 | 6670 | 
7 | CC[C@H](C)[C@H](NC(=O)[C@H](CCSC)NC(=O)[C@H](CCSC)NC(=O)[C@H](CO)NC(=O)[C@H](Cc1ccccc1)NC(=O)[C@H](Cc1c[nH]cn1)NC(=O)[C@H](CCCCN)NC(=O)[C@H](CCCNC(=N)N)NC(=O)[C@H](CC(C)C)NC(=O)[C@H](Cc1ccc(O)cc1)NC(=O)[C@H](C)NC(=O)[C@@H](N)Cc1ccc(O)cc1)C(=O)N[C@@H](CC(C)C)C(=O)N[C@@H](CO)C(=O)N[C@@H](CC(=O)O)C(=O)O [Peptide 150] | 5020 | 0.23 | 138 | 0.73 | 102 | 96 | 318 | 755 | 7.9 | 4.8 | 495 | 
